Assay results as given in patent publication US11491148B2, “Amide derivatives useful in the treatment of HBV infection or HBV-induced diseases” (Janssen Sciences Ireland Unlimited Company, priority 2019, dated 2022).
Counter-ions that a name gives are not always drawn. Like-named read-outs stand apart in the source and are kept apart here.

Legend:
[1] = tested on: HBV; assay: Anti-HBV activity, intracellular HBV DNA by real-time PCR (HBV-AVE-HepG2.117); format: cell-based, Hepatitis B virus; details: read-out: HBV-AVE-HepG2.117 EC50 (μM; mean value)
Description: The anti HBV activity was measured using the HepG2.117 cell line, a stable, inducible HBV producing cell line, which replicates HBV in the absence of doxicycline (Tet-off system). The HepG2 cell line is available from ATCC®) under number HB-8065. Transfection of the HepG2 cell line can be as described in Sun and Nassal 2006 Journal of Hepatology 45 (2006) 636-645 “Stable HepG2- and Huh7-based human hepatoma cell lines for efficient regulated expression of infectious hepatitis B virus”.
For the antiviral assay, HBV replication was induced, followed by a treatment with serially diluted compound in 96-well plates. After 3 days of treatment, the antiviral activity was determined by quantification of intracellular HBV DNA using real-time PCR and an HBV specific primer set and probe.

[2] = Cytotoxicity, ATPlite cell viability (TOX-HepG2.117); format: cell-based, human; details: human; HepG2.117 cells, incubated for 3 days, ATPlite, mean value
Description: Cytotoxicity of the compounds was tested using HepG2 or HepG2.117 cells, incubated for 3 days in the presence of compounds. The viability of the cells was assessed using the Perkin Elmer ATPlite Luminescence Assay System.”

[3] = Hepatitis B virus, HepG2.117, 72 h, HepG2.117 cell line, 3 days of treatment, intracellular HBV DNA, mean value
[4] = Hepatitis B virus, HepG2.117, 72 h

C[C@H]1[C@@H](C(=O)Nc2ccc(Cl)c(Cl)c2)CCN1C(=O)C(=O)N[C@H](CC(F)(F)F)c1c[nH]nn1 (single isomer, unassigned) [C25R*]
EC50 [1, 3]: 0.017 µM | CC50 at 3 days [2]: 25.7 µM

C[C@H]1[C@@H](C(=O)Nc2ccc(Cl)c(Cl)c2)CCN1C(=O)C(=O)N[C@@H](CC(F)(F)F)c1c[nH]nn1 (single isomer, unassigned) [C25S*]
EC50 [1, 3]: 0.074 µM | CC50 at 3 days [2]: > 50 µM

C[C@H]1[C@@H](C(=O)Nc2ccc(F)c(C#N)c2)CCN1C(=O)C(=O)N[C@H](CC(F)(F)F)c1c[nH]nn1 (single isomer, unassigned) [C28R*]
EC50 [1, 3]: 0.032 µM | CC50 at 3 days [2]: > 50 µM

C[C@H]1[C@@H](C(=O)Nc2ccc(F)c(C#N)c2)CCN1C(=O)C(=O)N[C@@H](CC(F)(F)F)c1c[nH]nn1 (single isomer, unassigned) [C28S*]
EC50 [1, 3]: 0.07 µM | CC50 at 3 days [2]: > 50 µM

C[C@H]1[C@@H](C(=O)Nc2cc(F)c(F)c(F)c2)CCN1C(=O)C(=O)N[C@H](CC(F)(F)F)c1c[nH]nn1 (single isomer, unassigned) [C29R*]
EC50 [1, 3]: 0.014 µM | CC50 at 3 days [2]: > 50 µM

C[C@H]1[C@@H](C(=O)Nc2cc(F)c(F)c(F)c2)CCN1C(=O)C(=O)N[C@@H](CC(F)(F)F)c1c[nH]nn1 (single isomer, unassigned) [C29S*]
EC50 [1, 3]: 0.042 µM | CC50 at 3 days [2]: > 50 µM

C[C@H]1[C@@H](C(=O)Nc2ccc(F)c(C(F)(F)F)c2)CCN1C(=O)C(=O)N[C@H](CC(F)(F)F)c1c[nH]nn1 (single isomer, unassigned) [C30R*]
EC50 [1, 3]: 0.037 µM | CC50 at 3 days [2]: > 50 µM

C[C@H]1[C@@H](C(=O)Nc2ccc(F)c(C(F)(F)F)c2)CCN1C(=O)C(=O)N[C@@H](CC(F)(F)F)c1c[nH]nn1 (single isomer, unassigned) [C30S*]
EC50 [1, 3]: 0.06 µM | CC50 at 3 days [2]: > 50 µM

C[C@H]1[C@@H](C(=O)Nc2ccc(F)c(C(F)F)c2F)CCN1C(=O)C(=O)N[C@H](CC(F)(F)F)c1c[nH]nn1 (single isomer, unassigned) [C31R*]
EC50 [1, 3]: 0.021 µM | CC50 at 3 days [2]: > 50 µM

C[C@H]1[C@@H](C(=O)Nc2ccc(F)c(C(F)F)c2F)CCN1C(=O)C(=O)N[C@@H](CC(F)(F)F)c1c[nH]nn1 (single isomer, unassigned) [C31S*]
EC50 [1, 3]: 0.056 µM | CC50 at 3 days [2]: > 50 µM

C[C@H]1[C@@H](C(=O)Nc2cc(F)c(F)c(Cl)c2)CCN1C(=O)C(=O)N[C@H](CC(F)(F)F)c1c[nH]nn1 (single isomer, unassigned) [C32R*]
EC50 [1, 3]: 0.007 µM | CC50 at 3 days [2]: > 50 µM

C[C@H]1[C@@H](C(=O)Nc2cc(F)c(F)c(Cl)c2)CCN1C(=O)C(=O)N[C@@H](CC(F)(F)F)c1c[nH]nn1 (single isomer, unassigned) [C32S*]
EC50 [1, 3]: 0.031 µM | CC50 at 3 days [2]: > 50 µM

C[C@H]1[C@@H](C(=O)Nc2cc(F)c(F)c(F)c2)CCN1C(=O)C(=O)N[C@](C)(CC(F)F)c1c[nH]nn1 (single isomer, unassigned) [C33R*]
EC50 [1, 3]: 0.034 µM | CC50 at 3 days [2]: > 50 µM

C[C@H]1[C@@H](C(=O)Nc2cc(F)c(F)c(F)c2)CCN1C(=O)C(=O)N[C@@](C)(CC(F)F)c1c[nH]nn1 (single isomer, unassigned) [C33S*]
EC50 [1, 3]: 0.04 µM | CC50 at 3 days [2]: > 50 µM

C[C@H]1[C@@H](C(=O)Nc2ccc(F)c(Cl)c2)CCN1C(=O)C(=O)N[C@H](CC(F)(F)F)c1c[nH]nn1 (single isomer, unassigned) [C34R*]
EC50 [1, 3]: 0.003 µM | CC50 at 3 days [2]: > 50 µM

C[C@H]1[C@@H](C(=O)Nc2ccc(F)c(Cl)c2)CCN1C(=O)C(=O)N[C@@H](CC(F)(F)F)c1c[nH]nn1 (single isomer, unassigned) [C34S*]
EC50 [1, 3]: 0.035 µM | CC50 at 3 days [2]: > 50 µM

C[C@H]1[C@@H](C(=O)Nc2ccc(F)c(Cl)c2F)CCN1C(=O)C(=O)N[C@H](CC(F)(F)F)c1c[nH]nn1 (single isomer, unassigned) [C37R*]
EC50 [1, 3]: 0.014 µM | CC50 at 3 days [2]: > 50 µM

C[C@H]1[C@@H](C(=O)Nc2ccc(F)c(Cl)c2F)CCN1C(=O)C(=O)N[C@@H](CC(F)(F)F)c1c[nH]nn1 (single isomer, unassigned) [C37S*]
EC50 [1, 3]: 0.043 µM | CC50 at 3 days [2]: > 50 µM

N#Cc1cc(NC(=O)[C@H]2CCN(C(=O)C(=O)NC3(c4c[nH]nn4)CC(F)(F)C3)C2)ccc1F [C1, (3S)—N-(3-Cyano-4-fluorophenyl)-1-[{[3,3-difluoro-1-(1H-1,2,3-triazol-4-yl)cyclobutyl]amino}(oxo)acetyl]pyrrolidine-3-carboxamide]
EC50 [1, 3]: 0.15 µM | CC50 at 3 days [2]: > 50 µM

N#Cc1cc(NC(=O)[C@H]2CCN(C(=O)C(=O)NC3(c4c[nH]nn4)CC(F)(F)C3)C2)ccc1F [C1•HCl, (3S)—N-(3-Cyano-4-fluorophenyl)-1-[{[3,3-difluoro-1-(1H-1,2,3-triazol-4-yl)cyclobutyl]amino}(oxo)acetyl]pyrrolidine-3-carboxamide hydrochloride]
EC50 ([1]; HepG2.117 cell line, 3 days of treatment, intracellular HBV DNA, mean value, hydrochloride): 0.27 µM

Cc1cc(NC(=O)[C@H]2CCN(C(=O)C(=O)NC3(c4c[nH]nn4)CC(F)(F)C3)C2)ccc1F [C2, (3S)-1-[{[3,3-Difluoro-1-(1H-1,2,3-triazol-4-yl)cyclobutyl]amino}(oxo)acetyl]-N-(4-fluoro-3-methylphenyl)pyrrolidine-3-carboxamide]
EC50 [1, 3]: 0.079 µM | CC50 at 3 days [2]: > 50 µM

C[C@H]1[C@@H](C(=O)Nc2cc(F)c(F)c(F)c2)CCN1C(=O)C(=O)NC1(c2c[nH]nn2)CC(F)(F)C1 [C3, (2S,3S)-1-[{[3,3-Difluoro-1-(1H-1,2,3-triazol-4-yl)cyclobutyl]amino}(oxo)acetyl]-2-methyl-N-(3,4,5-trifluorophenyl)pyrrolidine-3-carboxamide]
EC50 [1, 4]: 0.011 µM | CC50 at 3 days [2]: > 50 µM

O=C(NC1(c2c[nH]nn2)CC(F)(F)C1)C(=O)N1CC[C@H](C(=O)Nc2cc(F)c(F)c(F)c2)C1 [C4, (3S)-1-[{[3,3-Difluoro-1-(1H-1,2,3-triazol-4-yl)cyclobutyl]amino}(oxo)acetyl]-N-(3,4,5-trifluorophenyl)pyrrolidine-3-carboxamide]
EC50 [1, 3]: 0.053 µM | CC50 at 3 days [2]: > 50 µM

O=C(NC1(c2c[nH]nn2)CC(F)(F)C1)C(=O)N1CC[C@H](C(=O)Nc2ccc(F)c(Cl)c2)C1 [C5, (3S)—N-(3-Chloro-4-fluorophenyl)-1-[{[3,3-difluoro-1-(1H-1,2,3-triazol-4-yl)cyclobutyl]amino}(oxo)acetyl]pyrrolidine-3-carboxamide]
EC50 [1, 4]: 0.04 µM | CC50 at 3 days [2]: > 50 µM

C[C@H]1[C@@H](C(=O)Nc2ccc(F)c(C#N)c2)CCN1C(=O)C(=O)NC1(c2c[nH]nn2)CC(F)(F)C1 [C6, (2S,3S)—N-(3-Cyano-4-fluorophenyl)-1-[{[3,3-difluoro-1-(1H-1,2,3-triazol-4-yl)cyclobutyl]amino}(oxo)acetyl]-2-methylpyrrolidine-3-carboxamide]
EC50 [1, 4]: 0.044 µM | CC50 at 3 days [2]: > 50 µM

O=C(NC1(c2c[nH]nn2)CC(F)(F)C1)C(=O)N1CC[C@H](C(=O)Nc2ccc(Cl)c(Cl)c2)C1 [C7]
EC50 [1, 3]: 0.1 µM | CC50 at 3 days [2]: > 50 µM

O=C(NC1(c2c[nH]nn2)CC(F)(F)C1)C(=O)N1CC[C@H](C(=O)Nc2cc(F)c(F)c(Cl)c2)C1 [C8]
EC50 [1, 3]: 0.045 µM | CC50 at 3 days [2]: > 50 µM

C[C@@H]1CN(C(=O)C(=O)NC2(c3c[nH]nn3)CC(F)(F)C2)C[C@H]1C(=O)Nc1cc(F)c(F)c(F)c1 [C9]
EC50 [1, 3]: 0.204 µM | CC50 at 3 days [2]: > 50 µM

C[C@H]1CN(C(=O)C(=O)NC2(c3c[nH]nn3)CC(F)(F)C2)C[C@H]1C(=O)Nc1cc(F)c(F)c(F)c1 [C10]
EC50 [1, 3]: 0.578 µM | CC50 at 3 days [2]: > 50 µM

O=C(NC1(c2c[nH]nn2)CC(F)(F)C1)C(=O)N1CC[C@H](C(=O)Nc2ccnc(Cl)c2)C1 [C11]
EC50 [1, 3]: 1.5 µM | CC50 at 3 days [2]: > 50 µM

O=C(NC1(c2c[nH]nn2)CC(F)(F)C1)C(=O)N1CC[C@H](C(=O)Nc2ccnc(C(F)F)c2)C1 [C12]
EC50 [1, 3]: 1.29 µM | CC50 at 3 days [2]: > 50 µM

C[C@H]1C[C@H](C(=O)Nc2ccc(F)c(C#N)c2)CN1C(=O)C(=O)NC1(c2c[nH]nn2)CC(F)(F)C1 [C13]
EC50 [1, 3]: 0.061 µM | CC50 at 3 days [2]: > 50 µM

C[C@H]1[C@@H](C(=O)Nc2ccc(F)c(C(F)F)c2F)CCN1C(=O)C(=O)NC1(c2c[nH]nn2)CC(F)(F)C1 [C14]
EC50 [1, 3]: 0.019 µM | CC50 at 3 days [2]: > 50 µM

C[C@H]1[C@@H](C(=O)Nc2ccc(Cl)c(Cl)c2)CCN1C(=O)C(=O)NC1(c2c[nH]nn2)CC(F)(F)C1 [C15]
EC50 [1, 3]: 0.014 µM | CC50 at 3 days [2]: 35.2 µM

C[C@H]1[C@@H](C(=O)Nc2cc(F)c(F)c(Cl)c2)CCN1C(=O)C(=O)NC1(c2c[nH]nn2)CC(F)(F)C1 [C16]
EC50 [1, 3]: 0.006 µM | CC50 at 3 days [2]: > 50 µM

C[C@H]1[C@@H](C(=O)Nc2ccc(F)c(Cl)c2F)CCN1C(=O)C(=O)NC1(c2c[nH]nn2)CC(F)(F)C1 [C17]
EC50 [1, 3]: 0.01 µM | CC50 at 3 days [2]: > 50 µM

C[C@H]1[C@@H](C(=O)Nc2ccc(F)c(C(F)(F)F)c2)CCN1C(=O)C(=O)NC1(c2c[nH]nn2)CC(F)(F)C1 [C18]
EC50 [1, 3]: 0.012 µM | CC50 at 3 days [2]: > 50 µM

C[C@H]1C[C@H](C(=O)Nc2cc(F)c(F)c(F)c2)CN1C(=O)C(=O)NC1(c2c[nH]nn2)CC(F)(F)C1 [C19]
EC50 [1, 3]: 0.019 µM | CC50 at 3 days [2]: > 50 µM

C[C@H]1[C@@H](C(=O)Nc2ccc(F)c(Cl)c2)CCN1C(=O)C(=O)NC1(c2c[nH]nn2)CC(F)(F)C1 [C20]
EC50 [1, 3]: 0.012 µM | CC50 at 3 days [2]: > 50 µM
